Data published in patent US11292791B2 (priority 2017, dated 2022).

Target: BRD4 (Homo sapiens (Human), UniProt O60885)
Details: read-out: BRD4 IC50 (μM gmean)

## COC(=O)N1c2ccc3c(nc(Cc4ccc(C#N)cc4)n3[C@H]3CC[C@H](C(=O)O)CC3)c2CC[C@@H]1C [Example 744]
  IC50: 1 to 1000 µM

## COC(=O)N1c2ccc3c(nc(Cc4cnc(Cl)c(C)n4)n3[C@@H]3CCC[C@@H](C(=O)O)C3)c2CC[C@@H]1C [Example 745]
  IC50: 1 to 1000 µM

## COC(=O)N1c2ccc3c(nc(C(C)(O)c4ccccn4)n3C3CCCC(C(=O)O)C3)c2CC[C@@H]1C (stereo partly drawn) [Example 749]
  IC50: 1 to 1000 µM

## COC(=O)N1c2ccc3c(nc(CC(C(=O)O)c4ccc(F)c(F)c4)n3C3CCCC3)c2CC[C@@H]1C (stereo partly drawn) [Example 751]
  IC50: 1 to 1000 µM

## COC(=O)N1c2ccc3c(nc(COC4CCCC4)n3[C@H]3CC[C@H](C(=O)O)CC3)c2CC[C@@H]1C [Example 752]
  IC50: 1 to 1000 µM

## COC(=O)N1c2ccc3c(nc(C4(Cn5cccn5)CC4)n3[C@@H]3CCC[C@@H](C(=O)O)C3)c2CC[C@@H]1C [Example 753]
  IC50: 1 to 1000 µM

## COC(=O)N1c2ccc3c(nc(C(C)Cn4cccn4)n3C3CCS(=O)(=O)CC3)c2CC[C@@H]1C (stereo partly drawn) [Example 754]
  IC50: 1 to 1000 µM

## COC(=O)N1c2ccc3c(nc(CC(C(=O)O)c4ccc(C(C)C)cc4)n3C3CCCOC3)c2CC[C@@H]1C (stereo partly drawn) [Example 756]
  IC50: 1 to 1000 µM

## COC(=O)N1c2ccc3c(nc(CC(C(=O)O)c4ccccc4)n3C3CCCC(OC)C3)c2CC[C@@H]1C (stereo partly drawn) [Example 757]
  IC50: 1 to 1000 µM

## COC(=O)N1c2ccc3c(nc(CN4CCc5ccccc5C4=O)n3[C@@H]3CCC[C@@H](C(=O)O)C3)c2CC[C@@H]1C [Example 758]
  IC50: 1 to 1000 µM

## COC(=O)N1c2ccc3c(nc(COC4CCOCC4)n3[C@H]3CC[C@H](C(=O)O)CC3)c2CC[C@@H]1C [Example 759]
  IC50: 1 to 1000 µM

## COC(=O)N1c2ccc3c(nc(C(O)C4CCCC4)n3C3CCCC(C(=O)O)C3)c2CC[C@@H]1C (stereo partly drawn) [Example 762]
  IC50: 1 to 1000 µM

## COC(=O)N1c2ccc3c(nc(N(C)c4ccc(C#N)cc4)n3[C@H]3CC[C@H](C(=O)O)CC3)c2CC[C@@H]1C [Example 769]
  IC50: 1 to 1000 µM

## COC(=O)N1c2ccc3c(nc(C(C)Cn4cccn4)n3C3CCS(=O)(=O)C3)c2CC[C@@H]1C (stereo partly drawn) [Example 771]
  IC50: 1 to 1000 µM

## COC(=O)N1c2ccc3c(nc(C(C)Cn4cccn4)n3C3CCS(=O)(=O)C3)c2CC[C@@H]1C (stereo partly drawn) [Example 772]
  IC50: 1 to 1000 µM

## COC(=O)N1c2ccc3c(nc(CC(C(=O)O)c4ccc(F)cc4)n3C3CCCOC3)c2CC[C@@H]1C (stereo partly drawn) [Example 773]
  IC50: 1 to 1000 µM

## COC(=O)N1c2ccc3c(nc(Cc4cncc(OC(C)C)c4)n3[C@@H]3CCC[C@@H](C(=O)O)C3)c2CC[C@@H]1C [Example 775]
  IC50: 1 to 1000 µM

## COC(=O)N1c2ccc3c(nc(Cc4ccc(C(F)(F)F)nn4)n3[C@@H]3CCC[C@@H](C(=O)O)C3)c2CC[C@@H]1C [Example 777]
  IC50: 1 to 1000 µM

## COC(=O)N1c2ccc3c(nc(Cc4ccccc4C(=O)O)n3C3CCOCC3)c2CC[C@@H]1C [Example 778]
  IC50: 1 to 1000 µM

## COC(=O)N1c2ccc3c(nc([C@@H](c4ccccc4)S(C)(=O)=O)n3[C@H]3CC[C@H](C(=O)O)CC3)c2CC[C@@H]1C [Example 779]
  IC50: 1 to 1000 µM

## COC(=O)N1c2ccc3c(nc(Cc4cccc(OC(C)C)n4)n3[C@H]3CC[C@H](C(=O)O)CC3)c2CC[C@@H]1C [Example 780]
  IC50: 1 to 1000 µM

## COC(=O)N1c2ccc3c(nc(C(C)Cn4ccc(C)n4)n3C3CCCC(C(=O)O)C3)c2CC[C@@H]1C (stereo partly drawn) [Example 782]
  IC50: 1 to 1000 µM

## COC(=O)N1c2ccc3c(nc(CC(C(=O)O)c4ccc(C)c(F)c4)n3C3CCCOC3)c2CC[C@@H]1C (stereo partly drawn) [Example 783]
  IC50: 1 to 1000 µM

## COC(=O)N1c2ccc3c(nc(CCC4CCOCC4)n3[C@H]3CC[C@H](C(=O)O)CC3)c2CC[C@@H]1C [Example 784]
  IC50: 1 to 1000 µM

## COC(=O)N1c2ccc3c(nc(CC(C(=O)O)c4ccc(C(F)F)cc4)n3C3COCC(F)(F)C3)c2CC[C@@H]1C (stereo partly drawn) [Example 785]
  IC50: 1 to 1000 µM

## COC(=O)N1c2ccc3c(nc(CC(C(=O)O)c4ccccc4)n3-c3cccc(OC)c3)c2CC[C@@H]1C (stereo partly drawn) [Example 786]
  IC50: 1 to 1000 µM

## COC(=O)N1c2ccc3c(nc(N(C)c4ccccc4)n3[C@@H]3CCC[C@@H](C(=O)O)C3)c2CC[C@@H]1C [Example 787]
  IC50: 1 to 1000 µM

## COC(=O)N1c2ccc3c(nc(CN4C(=O)CCc5ccccc54)n3[C@@H]3CCC[C@@H](C(=O)O)C3)c2CC[C@@H]1C [Example 789]
  IC50: 1 to 1000 µM

## COC(=O)N1c2ccc3c(nc(CC(C(=O)O)c4ccccc4)n3C3CCCC(OC)C3)c2CC[C@@H]1C (stereo partly drawn) [Example 791]
  IC50: 1 to 1000 µM

## COC(=O)N1c2ccc3c(nc(OCc4ccccc4)n3[C@H]3CC[C@H](C(=O)O)CC3)c2CC[C@@H]1C [Example 792]
  IC50: 1 to 1000 µM

## COC(=O)N1c2ccc3c(nc(Cc4cnc5cc[nH]c5n4)n3[C@@H]3CCC[C@@H](C(=O)O)C3)c2CC[C@@H]1C [Example 795]
  IC50: 1 to 1000 µM

## COC(=O)N1c2ccc3c(nc(CC(=O)N4CCCC4)n3[C@@H]3CCC[C@@H](C(=O)O)C3)c2CC[C@@H]1C [Example 798]
  IC50: 1 to 1000 µM

## COC(=O)N1c2ccc3c(nc(Nc4cccc(F)c4)n3[C@@H]3CCC[C@@H](C(=O)O)C3)c2CC[C@@H]1C [Example 802]
  IC50: 1 to 1000 µM

## COC(=O)N1c2ccc3c(nc(C(C)Cc4ccccc4)n3C3CCNCC3)c2CC[C@@H]1C (stereo partly drawn) [Example 803]
  IC50: 1 to 1000 µM

## COC(=O)N1c2ccc3c(nc(CC[C@H]4CCOC4)n3[C@@H]3CCC[C@@H](C(=O)O)C3)c2CC[C@@H]1C [Example 804]
  IC50: 1 to 1000 µM

## COC(=O)N1c2ccc3c(nc(N(C)c4ccc(F)cc4)n3[C@H]3CC[C@H](C(=O)O)CC3)c2CC[C@@H]1C [Example 805]
  IC50: 1 to 1000 µM

## COC(=O)N1c2ccc3c(nc(CC4CCCOC4)n3C3CCCC(C(=O)O)C3)c2CC[C@@H]1C (stereo partly drawn) [Example 806]
  IC50: 1 to 1000 µM

## COC(=O)N1c2ccc3c(nc(OCCc4ccccc4)n3[C@H]3CC[C@H](C(=O)O)CC3)c2CC[C@@H]1C [Example 807]
  IC50: 1 to 1000 µM

## COC(=O)N1c2ccc3c(nc(OCCn4cc(Cl)cn4)n3[C@@H]3CCC[C@@H](C(=O)O)C3)c2CC[C@@H]1C [Example 810]
  IC50: 1 to 1000 µM

## COC(=O)N1c2ccc3c(nc(C(CO)c4ccccc4)n3C3CCC(C(=O)O)CC3)c2CC[C@@H]1C (stereo partly drawn) [Example 812]
  IC50: 1 to 1000 µM

## COC(=O)N1c2ccc3c(nc(S(=O)(=O)c4ccccc4)n3[C@@H]3CCC[C@@H](C(=O)O)C3)c2CC[C@@H]1C [Example 813]
  IC50: 1 to 1000 µM

## COC(=O)N1c2ccc3c(nc(S(=O)(=O)Cc4ccccc4)n3[C@@H]3CCC[C@@H](C(=O)O)C3)c2CC[C@@H]1C [Example 814]
  IC50: 1 to 1000 µM

## COC(=O)N1c2ccc3c(nc(Cc4nccc(C)n4)n3[C@@H]3CCC[C@@H](C(=O)O)C3)c2CC[C@@H]1C [Example 820]
  IC50: 1 to 1000 µM

## C/C=C(/Oc1ccccc1)c1nc2c3c(ccc2n1[C@H]1CC[C@H](C(=O)O)CC1)N(C(=O)OC)[C@@H](C)CC3 [Example 821]
  IC50: 1 to 1000 µM

## COC(=O)N1c2ccc3c(nc(C4(Oc5cnccn5)CC4)n3[C@H]3CC[C@H](C(=O)O)CC3)c2CC[C@@H]1C [Example 823]
  IC50: 1 to 1000 µM

## COC(=O)N1c2ccc3c(nc(C(C)Cn4ccc(C)n4)n3C3CCC(C(=O)O)CC3)c2CC[C@@H]1C (stereo partly drawn) [Example 824]
  IC50: 1 to 1000 µM

## COC(=O)N1c2ccc3c(nc(C(C)Cn4ccc(Cl)n4)n3C3CCCC(C(=O)O)C3)c2CC[C@@H]1C (stereo partly drawn) [Example 827]
  IC50: 1 to 1000 µM

## COC(=O)N1c2ccc3c(nc(Cc4ncc(Cl)cn4)n3[C@@H]3CCC[C@@H](C(=O)O)C3)c2CC[C@@H]1C [Example 828]
  IC50: 1 to 1000 µM
